Assays:
CLC-2 = CLC-2 (Homo sapiens (Human), UniProt P51788); conditions: preliminary data, Xenopus oocytes
CLC-1 [1] = biological target: T1, CLC-1 (Homo sapiens (Human), UniProt P35523); assay: two-electrode voltage clamp electrophysiology in Xenopus oocytes, CLC-1; type: cell-based; conditions: preliminary data, read-out: IC50 against CLC-1
mGluR1 = mGluR1 (Homo sapiens (Human), UniProt Q13255); assay: PDSP functional assay; type: biochemical; conditions: only a functional assay was performed
Description: (§1) Two exemplary compounds, FA44 and FA26, were screened against a panel of CNS receptors, transporters, and ion channels to examine specificity for CLC-2 in the brain. A comprehensive primary binding assay screen was performed through the NIH Psychoactive Drug Screening Program (PDSP) at UNC-Chapel Hill. Secondary or functional assays were performed for compounds showing >50% activity in the primary assay.

mGluR2 = mGluR2 (Homo sapiens (Human), UniProt Q14416); assay: PDSP functional assay; type: biochemical; conditions: only a functional assay was performed
Description: as §1

mGluR8 = mGluR8 (Homo sapiens (Human), UniProt O00222); assay: PDSP functional assay; type: biochemical; conditions: only a functional assay was performed
Description: as §1

mGluR4 = mGluR4 (Homo sapiens (Human), UniProt Q14833); assay: PDSP functional assay; type: biochemical; conditions: only a functional assay was performed
Description: as §1

mGluR6 = mGluR6 (Homo sapiens (Human), UniProt O15303); assay: PDSP functional assay; type: biochemical; conditions: only a functional assay was performed
Description: as §1

CLC-1 [2] = biological target: T1, CLC-1; assay: IonWorks Barracuda automated patch-clamp electrophysiology, CLC-1; type: cell-based; conditions: for IC50: Table 2; for percent inhibition of CLC-1 at highest concentration tested (in parenthesis): at the concentration listed in the same cell
Description: If the IC50 was greater than the highest concentration tested, this concentration is listed along with the percent inhibition at this concentration (in parenthesis).
FIG. 8, panels A and B depict graphically the Selectivity between CLC-1 and CLC-2. […] Data points represent the mean current block at 16 different FA44 concentrations (n=4-8), using the IonWorks™ Barracuda. […] Panel B depicts a summary graph showing the mean inhibition of CLC-1 (left bar) or CLC-2 (right bar) current at 30 μM, illustrating the improvement in both selectivity and potency from the hit compound MCFA to the exemplary compound FA44.
Target sequence in this assay (P35523 whole entry): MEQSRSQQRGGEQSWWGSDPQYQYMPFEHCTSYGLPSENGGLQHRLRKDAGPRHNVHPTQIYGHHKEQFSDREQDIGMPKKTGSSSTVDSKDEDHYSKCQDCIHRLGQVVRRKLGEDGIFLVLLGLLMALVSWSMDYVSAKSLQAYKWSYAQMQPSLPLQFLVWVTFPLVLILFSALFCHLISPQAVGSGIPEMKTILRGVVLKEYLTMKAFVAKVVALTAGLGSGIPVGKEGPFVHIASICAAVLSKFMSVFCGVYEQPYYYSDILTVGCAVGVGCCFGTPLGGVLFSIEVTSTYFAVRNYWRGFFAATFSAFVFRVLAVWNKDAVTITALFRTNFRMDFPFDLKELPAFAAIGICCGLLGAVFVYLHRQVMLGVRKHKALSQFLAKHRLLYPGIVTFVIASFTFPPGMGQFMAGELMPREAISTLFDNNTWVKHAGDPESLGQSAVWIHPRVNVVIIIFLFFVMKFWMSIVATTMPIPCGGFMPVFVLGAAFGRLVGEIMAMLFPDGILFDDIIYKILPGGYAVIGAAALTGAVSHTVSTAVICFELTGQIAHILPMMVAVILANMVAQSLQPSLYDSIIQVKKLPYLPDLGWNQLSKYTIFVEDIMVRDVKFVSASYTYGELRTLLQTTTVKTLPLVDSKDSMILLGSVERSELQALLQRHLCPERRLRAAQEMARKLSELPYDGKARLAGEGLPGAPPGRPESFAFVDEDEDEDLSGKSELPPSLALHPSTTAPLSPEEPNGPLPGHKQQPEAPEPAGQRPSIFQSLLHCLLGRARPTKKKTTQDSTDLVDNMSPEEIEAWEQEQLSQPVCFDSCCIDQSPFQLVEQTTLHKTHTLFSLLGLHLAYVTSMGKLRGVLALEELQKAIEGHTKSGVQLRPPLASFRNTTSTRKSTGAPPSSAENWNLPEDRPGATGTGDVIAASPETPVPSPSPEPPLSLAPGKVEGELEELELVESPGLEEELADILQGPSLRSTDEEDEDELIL

5-HT3 = 5-HT3 (Homo sapiens (Human), UniProt P46098); assay: PDSP primary binding assay; conditions: primary binding assay at 10 μM
Description: as §1

NET = NET (Homo sapiens (Human), UniProt P23975); assay: PDSP primary binding assay; conditions: primary binding assay at 10 μM
Description: as §1

5-HT6 = 5-HT6 (Homo sapiens (Human), UniProt P50406); assay: PDSP primary binding assay; conditions: primary binding assay at 10 μM
Description: as §1

KOR = KOR (Homo sapiens (Human), UniProt P41145); assay: PDSP primary binding assay; conditions: primary binding assay at 10 μM
Description: as §1

Beta2 = Beta2 (Homo sapiens (Human), UniProt P07550); assay: PDSP primary binding assay; conditions: primary binding assay at 10 μM
Description: as §1

5-HT1E = 5-HT1E (Homo sapiens (Human), UniProt P28566); assay: PDSP primary binding assay; conditions: primary binding assay at 10 μM
Description: as §1

5-HT2B = 5-HT2B (Homo sapiens (Human), UniProt P41595); assay: PDSP primary binding assay; conditions: primary binding assay at 10 μM
Description: as §1

DAT = DAT (Homo sapiens (Human), UniProt Q01959); assay: PDSP primary binding assay; conditions: primary binding assay at 10 μM
Description: as §1

D4 = D4 (Homo sapiens (Human), UniProt P21917); assay: PDSP primary binding assay; conditions: primary binding assay at 10 μM
Description: as §1

Sigma 1 = Sigma 1 (Homo sapiens (Human), UniProt Q99720); assay: PDSP primary binding assay; conditions: primary binding assay at 10 μM
Description: as §1

D3 = D3 (Homo sapiens (Human), UniProt P35462); assay: PDSP primary binding assay; conditions: primary binding assay at 10 μM
Description: as §1

Alpha1A = Alpha1A (Homo sapiens (Human), UniProt P35348); assay: PDSP primary binding assay; conditions: primary binding assay at 10 μM
Description: as §1

H4 = H4 (Homo sapiens (Human), UniProt Q9H3N8); assay: PDSP primary binding assay; conditions: primary binding assay at 10 μM
Description: as §1

Alpha1D = Alpha1D (Homo sapiens (Human), UniProt P25100); assay: PDSP primary binding assay; conditions: primary binding assay at 10 μM
Description: as §1

AMPA = assay: PDSP primary binding assay; conditions: primary binding assay at 10 μM
Description: as §1

[3] = tested on: panel of CNS receptors, channels, and transporters; assay: PDSP screen against panel of CNS receptors, transporters, and ion channels (overall); type: binding
Description: as §1

A2A = A2A (Homo sapiens (Human), UniProt P29274); assay: PDSP primary binding assay; conditions: primary binding assay at 10 μM
Description: as §1

V1A = V1A (Homo sapiens (Human), UniProt P37288); assay: PDSP primary binding assay; conditions: primary binding assay at 10 μM
Description: as §1

V1B = V1B (Homo sapiens (Human), UniProt P47901); assay: PDSP primary binding assay; conditions: primary binding assay at 10 μM
Description: as §1

Sequence of NET (P23975 whole entry): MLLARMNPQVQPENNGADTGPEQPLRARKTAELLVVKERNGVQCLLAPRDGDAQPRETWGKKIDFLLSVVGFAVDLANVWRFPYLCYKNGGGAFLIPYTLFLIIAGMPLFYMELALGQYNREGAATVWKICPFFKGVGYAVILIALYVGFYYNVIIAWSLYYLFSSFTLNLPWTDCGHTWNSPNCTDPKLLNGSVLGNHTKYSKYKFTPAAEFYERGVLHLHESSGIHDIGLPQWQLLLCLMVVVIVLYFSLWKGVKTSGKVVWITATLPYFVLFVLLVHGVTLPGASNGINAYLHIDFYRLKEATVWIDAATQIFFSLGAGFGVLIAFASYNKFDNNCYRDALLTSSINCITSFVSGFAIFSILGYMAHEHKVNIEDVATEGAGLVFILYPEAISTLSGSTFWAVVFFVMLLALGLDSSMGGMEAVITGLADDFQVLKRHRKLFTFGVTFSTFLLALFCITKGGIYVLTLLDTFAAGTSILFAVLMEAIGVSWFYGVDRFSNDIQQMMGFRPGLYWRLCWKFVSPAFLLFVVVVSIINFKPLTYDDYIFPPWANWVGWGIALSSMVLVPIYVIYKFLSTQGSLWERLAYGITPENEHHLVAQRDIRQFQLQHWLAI
Sequence of DAT (Q01959 whole entry, species assumed): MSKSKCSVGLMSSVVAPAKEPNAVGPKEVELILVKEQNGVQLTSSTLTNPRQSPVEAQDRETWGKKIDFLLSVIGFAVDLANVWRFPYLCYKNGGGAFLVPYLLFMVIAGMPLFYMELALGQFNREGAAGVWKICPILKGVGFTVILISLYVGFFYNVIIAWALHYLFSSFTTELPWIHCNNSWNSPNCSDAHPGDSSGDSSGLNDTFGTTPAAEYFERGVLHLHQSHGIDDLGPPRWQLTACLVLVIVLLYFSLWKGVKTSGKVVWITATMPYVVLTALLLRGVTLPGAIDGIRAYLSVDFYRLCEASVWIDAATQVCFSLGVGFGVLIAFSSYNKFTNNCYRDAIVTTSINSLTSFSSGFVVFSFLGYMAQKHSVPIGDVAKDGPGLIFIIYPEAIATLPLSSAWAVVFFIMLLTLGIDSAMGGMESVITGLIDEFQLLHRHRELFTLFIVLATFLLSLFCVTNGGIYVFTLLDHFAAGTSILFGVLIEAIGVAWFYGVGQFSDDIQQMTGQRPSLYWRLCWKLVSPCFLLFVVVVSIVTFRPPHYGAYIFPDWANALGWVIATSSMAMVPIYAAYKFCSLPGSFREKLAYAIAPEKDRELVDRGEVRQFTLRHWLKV
Sequence of D4 (P21917 whole entry): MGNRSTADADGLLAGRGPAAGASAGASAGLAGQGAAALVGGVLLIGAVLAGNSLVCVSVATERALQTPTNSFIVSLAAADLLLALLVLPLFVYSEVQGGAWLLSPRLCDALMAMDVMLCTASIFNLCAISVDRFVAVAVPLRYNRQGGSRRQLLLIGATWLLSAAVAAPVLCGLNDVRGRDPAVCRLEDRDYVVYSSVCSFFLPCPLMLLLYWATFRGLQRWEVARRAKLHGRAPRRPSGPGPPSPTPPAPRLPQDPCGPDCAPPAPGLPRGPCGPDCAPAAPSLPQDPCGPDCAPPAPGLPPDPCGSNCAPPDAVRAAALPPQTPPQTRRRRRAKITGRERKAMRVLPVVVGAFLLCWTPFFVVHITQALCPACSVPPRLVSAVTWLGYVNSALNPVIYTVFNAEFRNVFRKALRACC
Sequence of Beta2 (P07550 whole entry): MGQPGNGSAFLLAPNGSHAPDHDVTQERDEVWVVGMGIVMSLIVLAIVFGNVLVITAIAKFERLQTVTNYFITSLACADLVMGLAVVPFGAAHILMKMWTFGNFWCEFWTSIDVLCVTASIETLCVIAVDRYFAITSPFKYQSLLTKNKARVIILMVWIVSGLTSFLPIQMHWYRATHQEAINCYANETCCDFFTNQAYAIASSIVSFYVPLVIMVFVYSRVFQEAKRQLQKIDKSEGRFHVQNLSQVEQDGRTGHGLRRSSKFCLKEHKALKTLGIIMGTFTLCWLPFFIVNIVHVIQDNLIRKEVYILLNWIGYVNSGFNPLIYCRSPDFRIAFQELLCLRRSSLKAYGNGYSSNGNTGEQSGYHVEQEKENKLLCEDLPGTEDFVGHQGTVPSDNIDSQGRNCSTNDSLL
Sequence of 5-HT1E (P28566 whole entry, species assumed): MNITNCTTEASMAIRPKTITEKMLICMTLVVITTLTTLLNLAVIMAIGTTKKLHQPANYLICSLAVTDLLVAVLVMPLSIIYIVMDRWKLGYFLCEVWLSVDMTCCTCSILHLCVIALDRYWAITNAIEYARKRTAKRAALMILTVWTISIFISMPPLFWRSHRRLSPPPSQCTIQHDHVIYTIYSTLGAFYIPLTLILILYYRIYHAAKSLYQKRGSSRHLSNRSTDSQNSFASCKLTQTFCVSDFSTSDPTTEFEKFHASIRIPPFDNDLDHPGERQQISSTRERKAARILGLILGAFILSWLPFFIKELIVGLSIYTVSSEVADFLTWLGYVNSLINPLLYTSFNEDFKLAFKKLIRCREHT
Sequence of D3 (P35462 whole entry): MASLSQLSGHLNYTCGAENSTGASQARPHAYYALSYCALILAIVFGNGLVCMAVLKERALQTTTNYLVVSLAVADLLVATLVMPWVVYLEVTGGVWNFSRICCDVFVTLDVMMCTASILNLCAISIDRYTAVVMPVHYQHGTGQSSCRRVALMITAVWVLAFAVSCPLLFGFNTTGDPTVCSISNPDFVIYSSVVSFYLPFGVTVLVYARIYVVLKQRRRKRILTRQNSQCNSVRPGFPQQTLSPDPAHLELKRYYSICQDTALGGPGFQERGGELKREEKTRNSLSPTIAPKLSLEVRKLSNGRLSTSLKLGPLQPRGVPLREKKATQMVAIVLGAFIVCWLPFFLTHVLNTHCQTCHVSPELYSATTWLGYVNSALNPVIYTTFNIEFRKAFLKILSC
Sequence of 5-HT6 (P50406 whole entry, species assumed): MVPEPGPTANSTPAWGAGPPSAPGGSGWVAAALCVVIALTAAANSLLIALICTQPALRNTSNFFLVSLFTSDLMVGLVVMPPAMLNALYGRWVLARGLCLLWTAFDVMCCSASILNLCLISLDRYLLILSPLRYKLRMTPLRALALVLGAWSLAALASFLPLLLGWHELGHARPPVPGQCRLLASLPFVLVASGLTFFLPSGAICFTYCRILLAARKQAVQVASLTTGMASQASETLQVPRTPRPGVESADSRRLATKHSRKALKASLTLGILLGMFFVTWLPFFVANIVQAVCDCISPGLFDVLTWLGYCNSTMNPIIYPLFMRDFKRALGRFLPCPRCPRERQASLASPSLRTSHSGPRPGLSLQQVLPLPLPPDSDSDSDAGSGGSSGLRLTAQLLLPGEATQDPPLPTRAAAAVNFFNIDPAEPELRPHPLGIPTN
Sequence of 5-HT2B (P41595 whole entry, species assumed): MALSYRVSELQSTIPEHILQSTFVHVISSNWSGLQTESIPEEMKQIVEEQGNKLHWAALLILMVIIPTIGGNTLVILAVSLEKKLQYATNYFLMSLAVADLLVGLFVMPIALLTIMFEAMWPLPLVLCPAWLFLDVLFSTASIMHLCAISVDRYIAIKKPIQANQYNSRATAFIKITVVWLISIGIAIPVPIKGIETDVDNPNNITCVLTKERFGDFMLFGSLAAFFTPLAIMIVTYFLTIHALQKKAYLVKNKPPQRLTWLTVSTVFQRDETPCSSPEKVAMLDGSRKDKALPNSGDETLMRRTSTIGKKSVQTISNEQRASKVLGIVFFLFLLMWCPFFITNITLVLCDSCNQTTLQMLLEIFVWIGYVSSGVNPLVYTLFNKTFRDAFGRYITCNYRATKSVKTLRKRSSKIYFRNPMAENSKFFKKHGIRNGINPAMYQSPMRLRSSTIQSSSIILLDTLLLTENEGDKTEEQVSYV
Sequence of Sigma 1 (Q99720 whole entry): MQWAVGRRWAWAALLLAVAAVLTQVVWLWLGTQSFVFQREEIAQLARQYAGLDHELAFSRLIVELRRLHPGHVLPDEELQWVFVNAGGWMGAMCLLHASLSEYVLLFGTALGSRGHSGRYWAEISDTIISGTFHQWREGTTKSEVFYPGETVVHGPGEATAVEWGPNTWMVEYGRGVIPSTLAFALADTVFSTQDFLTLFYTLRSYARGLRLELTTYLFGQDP

Compound | Ki (mGluR1) | IC50 (CLC-1 [2]) | percent inhibition of CLC-1 at highest concentration tested (in parenthesis) (CLC-1 [2]) | % (10 μM) (5-HT3) | % (10 μM) (NET) | % (10 μM) (5-HT6) | % (10 μM) (KOR) | % (10 μM) (Beta2) | % (10 μM) (5-HT1E) | % (10 μM) (5-HT2B) | % (10 μM) (DAT) | % (10 μM) (D4) | % (10 μM) (Sigma 1) | % (10 μM) (D3) | % (10 μM) (Alpha1A) | % (10 μM) (H4) | % (10 μM) (Alpha1D) | % (10 μM) (AMPA) | further results
O=C(O)c1ccccc1Nc1c(Cl)ccc(OCc2ccccc2)c1Cl [AK3-99B] | > 10 µM | > 30 µM | 25% | −7.63% | 33.59% | −10.67% | 29.90% | −8.08% | 11.82% | 14.38% | −17.73% | −0.19% | 3.95% | 18.42% | 24.26% | 8.29% | 7.20% | 21.14% | selectivity among CLC-1, CLC-2, CLC-Ka, CLC-Kb (CLC-2): selective for CLC-2; IC50 (CLC-1 [1]): > 250 µM; Ki (mGluR2): > 10 µM; Ki (mGluR8): > 10 µM; Ki (mGluR4): > 10 µM; Ki (mGluR6): > 10 µM
O=C(O)c1cccnc1Nc1c(Cl)ccc(OCc2ccccc2)c1Cl [AK3-238] | > 10 µM | > 100 µM | 22% | 28.75% | 17.36% | 18.68% | 4.11% | 4.77% | 10.43% | 45.16% | 9.23% | −0.65% | 38.52% | −4.66% | 12.29% | 2.23% | −10.12% | 28.20% | off-target effects among panel of CNS receptors, channels, and transporters [3]: no off-target effects; % (10 μM) (A2A): −8.70%; % (10 μM) (V1A): 23.96%; % (10 μM) (V1B): 40.53%
